Read-outs that look alike come from different tables or passages of the source. Square brackets hold non-standard residues; d marks the D form. Peptide text beside a SMILES is read from it. Aib = CC(C)(N)C(=O)O
Legend:
human GLP-2 receptor = molecular target: T1, human GLP-2 receptor (Homo sapiens, UniProt O95838, D470N); assay: GLP-2 receptor potency assay (cAMP AlphaScreen, HEK293 cells stably expressing GLP-2R); type: cell-based; details: cAMP response, HEK293 cells expressing human GLP-2R
T1 sequence (O95838 1-553 D470N): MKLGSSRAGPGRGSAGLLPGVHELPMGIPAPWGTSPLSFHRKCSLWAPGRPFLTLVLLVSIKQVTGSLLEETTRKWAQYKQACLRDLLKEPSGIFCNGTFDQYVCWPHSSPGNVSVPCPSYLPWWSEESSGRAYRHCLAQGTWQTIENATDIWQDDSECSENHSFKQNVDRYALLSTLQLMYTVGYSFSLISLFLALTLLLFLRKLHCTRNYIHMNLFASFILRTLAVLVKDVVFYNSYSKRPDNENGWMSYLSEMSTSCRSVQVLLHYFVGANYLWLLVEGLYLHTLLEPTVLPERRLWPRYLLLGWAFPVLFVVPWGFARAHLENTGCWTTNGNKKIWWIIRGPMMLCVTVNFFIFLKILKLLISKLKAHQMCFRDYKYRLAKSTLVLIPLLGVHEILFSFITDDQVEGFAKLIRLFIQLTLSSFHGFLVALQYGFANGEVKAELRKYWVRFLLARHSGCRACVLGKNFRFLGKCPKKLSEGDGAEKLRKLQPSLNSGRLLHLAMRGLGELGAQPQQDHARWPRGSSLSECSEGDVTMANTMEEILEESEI
How it was run: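 HEK293 cells stably expressing human GLP-2R (G418-selected clone); intracellular cAMP measured by AlphaScreen. Responses normalized to positive and vehicle controls; EC50 and maximal response from 4-parameter logistic fit.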

[1] = test system: Normal chow-fed C57BL/6J male mice; assay: Effect on fasting glucose and intestinal weight in normal mice; type: in vivo; details: for Small intestinal wet weight: 250 nmol/kg s.c. once daily for 4 days, sacrificed 24 hours after final dosing; for Fasting blood glucose: day 0, fasted mice, after a single s.c. injection, 250 nmol/kg
Experimental: Normal chow-fed C57BL/6J male mice were used. The mice were kept in standard housing conditions, light-, temperature-, and humidity-controlled room (12:12 h light-dark cycle, with lights on at 06.00-18.00 h; 20-22° C.; 50-80% relative humidity). Each dosing group consisted of 6 animals. Mice were dosed once daily with 250 nmol/kg with the test compounds or vehicle for 4 days via subcutaneous administration.
On day 0 mice were fasted and blood glucose levels measured after a single s.c. injection with peptides. Animals were sacrificed 24 hours after final dosing on day 3, and small intestinal wet weights were measured.

human GLP-1 receptor = molecular target: T2, human GLP-1 receptor (Homo sapiens, UniProt P43220); assay: GLP-1 receptor potency assay (cAMP AlphaScreen, HEK293 cells stably expressing GLP-1R); type: cell-based; details: cAMP response, HEK293 cells expressing human GLP-1R; read-out: EC50 GLP-1
T2 construct: expressed in transfected cells
How it was run: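 A HEK293 clone stably expressing cloned human GLP-1R (G418-selected) was stimulated with compound. Intracellular cAMP was measured by AlphaScreen. Responses were normalized to positive and vehicle controls, and EC50 and maximal response were fitted by 4-parameter logistic regression.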

[2] = Solubility assessment by turbidity absorbance at 325 nm; type: physicochemical; details: 1 mg/ml peptide
Experimental: A stock solution of the test peptide (2 mg/ml; determined from the weighed amount of peptide) in demineralized water adjusted to pH 2.5 with HCl was prepared, and aliquots were diluted 1:1 in 100 mM acetate buffer (pH 4.0 and pH 5.0), 100 mM histidine buffer (pH 6.0 and pH 7.0) and 100 mM phosphate buffer (pH 6.0, pH 7.0 and pH7.5), respectively, and loaded in a standard flat-bottom, non-sterile 96-well UV Microplate. The absorbance of samples (single samples, n=1) at 280 and 325 nm was measured in an absorbance-based plate reader, which was preheated to ambient temperature (typically 25° C.).

T2 sequence (P43220 24-463): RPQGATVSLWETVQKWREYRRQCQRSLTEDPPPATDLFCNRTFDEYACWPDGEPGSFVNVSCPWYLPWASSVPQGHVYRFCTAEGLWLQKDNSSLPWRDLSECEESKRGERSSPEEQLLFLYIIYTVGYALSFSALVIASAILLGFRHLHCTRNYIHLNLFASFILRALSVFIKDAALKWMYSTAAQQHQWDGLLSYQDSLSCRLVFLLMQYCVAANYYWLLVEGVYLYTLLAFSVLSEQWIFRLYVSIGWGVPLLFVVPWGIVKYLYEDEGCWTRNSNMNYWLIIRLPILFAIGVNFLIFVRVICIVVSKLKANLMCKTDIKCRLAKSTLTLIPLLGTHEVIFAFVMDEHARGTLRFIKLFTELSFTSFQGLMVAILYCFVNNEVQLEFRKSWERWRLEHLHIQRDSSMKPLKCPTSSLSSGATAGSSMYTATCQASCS

Structure (SMILES): CC[C@H](C)[C@H](NC(=O)[C@H](Cc1ccccc1)NC(=O)[C@H](CC(=O)O)NC(=O)[C@H](CCCNC(=N)N)NC(=O)[C@H](C)NC(=O)[C@H](C)NC(=O)[C@H](CCC(N)=O)NC(=O)[C@H](CCC(=O)O)NC(=O)[C@H](CC(=O)O)NC(=O)[C@H](CC(C)C)NC(=O)[C@@H](NC(=O)[C@@H](NC(=O)[C@H](C)NC(=O)[C@H](CC(C)C)NC(=O)[C@H](CCC(=O)O)NC(=O)[C@H](CO)NC(=O)[C@@H](NC(=O)[C@H](Cc1ccccc1)NC(=O)[C@@H](NC(=O)CNC(=O)[C@H](CCC(=O)O)NC(=O)C(C)(C)NC(=O)[C@@H](N)Cc1c[nH]cn1)[C@@H](C)O)[C@@H](C)O)[C@@H](C)O)[C@@H](C)CC)C(=O)N[C@@H](C)C(=O)N[C@@H](Cc1c[nH]c2ccccc12)C(=O)N[C@@H](CC(C)C)C(=O)N[C@@H](CCC(N)=O)C(=O)N[C@@H](C)C(=O)N[C@@H](CCC(N)=O)C(=O)N[C@@H](CCCCN)C(=O)N[C@H](C(=O)N[C@H](C(=O)N[C@@H](CC(=O)O)C(=O)O)[C@@H](C)O)[C@@H](C)CC [Compound 26] (H-H[Aib]EGTFTSELATILDEQAARDFIAWLQAQKITD-OH)
- EC50 (human GLP-2 receptor): 0.19 nM
- Small intestinal wet weight [1]: 0.78 g
- Fasting blood glucose [1]: 5.70 mM
- EC50 (human GLP-1 receptor): 0.013 nM

Structure (SMILES): CC[C@H](C)[C@H](NC(=O)[C@H](CC(C)C)NC(=O)[C@H](Cc1c[nH]c2ccccc12)NC(=O)[C@H](C)NC(=O)[C@@H](NC(=O)[C@H](Cc1ccccc1)NC(=O)[C@H](CC(=O)O)NC(=O)[C@H](CCCNC(=N)N)NC(=O)[C@H](C)NC(=O)[C@H](C)NC(=O)[C@H](CCC(N)=O)NC(=O)[C@H](CCC(=O)O)NC(=O)[C@H](CC(=O)O)NC(=O)[C@H](CC(C)C)NC(=O)[C@@H](NC(=O)[C@@H](NC(=O)[C@H](C)NC(=O)[C@H](CC(C)C)NC(=O)[C@H](CCC(=O)O)NC(=O)[C@H](CO)NC(=O)[C@@H](NC(=O)[C@H](Cc1ccccc1)NC(=O)[C@H](CO)NC(=O)CNC(=O)[C@H](CCC(=O)O)NC(=O)C(C)(C)NC(=O)[C@@H](N)Cc1c[nH]cn1)[C@@H](C)O)[C@@H](C)O)[C@@H](C)CC)[C@@H](C)CC)C(=O)N[C@@H](C)C(=O)N[C@@H](Cc1c[nH]cn1)C(=O)N[C@@H](CCCCN)C(=O)N[C@H](C(=O)N[C@H](C(=O)N[C@@H](CC(=O)O)C(=O)O)[C@@H](C)O)[C@@H](C)CC [Compound 1] (H-H[Aib]EGSFTSELATILDEQAARDFIAWLIAHKITD-OH)
- EC50 (human GLP-2 receptor): 0.036 nM
- Small intestinal wet weight [1]: 0.90 g
- Fasting blood glucose [1]: 5.76 mM
- solubility ([2]; 100 mM acetate buffer pH 4.0, ambient temperature, read-out: Solubility, Acetate buffer pH 4): ≥ 1000 µg/mL
- solubility ([2]; 100 mM acetate buffer pH 5.0, ambient temperature, read-out: Solubility, Acetate buffer pH 5): < 1000 µg/mL
- solubility ([2]; 100 mM histidine buffer pH 6.0, ambient temperature, read-out: Solubility, Histidine buffer pH 6): ≥ 1000 µg/mL
- solubility ([2]; 100 mM histidine buffer pH 7.0, ambient temperature, read-out: Solubility, Histidine buffer pH 7): ≥ 1000 µg/mL
- solubility ([2]; 100 mM phosphate buffer pH 6.0, ambient temperature, read-out: Solubility, Phosphate buffer pH 6): ≥ 1000 µg/mL
- solubility ([2]; 100 mM phosphate buffer pH 7.0, ambient temperature, read-out: Solubility, Phosphate buffer pH 7): ≥ 1000 µg/mL
- solubility ([2]; 100 mM phosphate buffer pH 7.5, ambient temperature, read-out: Solubility, Phosphate buffer pH 7.5): ≥ 1000 µg/mL
- EC50 (human GLP-1 receptor): 0.014 nM

Structure (SMILES): CC[C@H](C)[C@H](NC(=O)[C@H](Cc1ccccc1)NC(=O)[C@H](CC(=O)O)NC(=O)[C@H](CCCNC(=N)N)NC(=O)[C@H](C)NC(=O)[C@H](C)NC(=O)[C@H](CCC(N)=O)NC(=O)[C@H](CCC(=O)O)NC(=O)[C@H](CC(=O)O)NC(=O)[C@H](CC(C)C)NC(=O)[C@@H](NC(=O)[C@@H](NC(=O)[C@H](C)NC(=O)[C@H](CC(C)C)NC(=O)[C@H](CCC(=O)O)NC(=O)[C@H](CO)NC(=O)[C@@H](NC(=O)[C@H](Cc1ccccc1)NC(=O)[C@@H](NC(=O)CNC(=O)[C@H](CCC(=O)O)NC(=O)C(C)(C)NC(=O)[C@@H](N)Cc1c[nH]cn1)[C@@H](C)O)[C@@H](C)O)[C@@H](C)O)[C@@H](C)CC)C(=O)N[C@@H](CC(N)=O)C(=O)N[C@@H](Cc1c[nH]c2ccccc12)C(=O)N[C@@H](CC(C)C)C(=O)N[C@@H](CCCCN)C(=O)N[C@@H](C)C(=O)N[C@@H](Cc1c[nH]cn1)C(=O)N[C@@H](CCCCN)C(=O)N[C@H](C(=O)N[C@H](C(=O)N[C@@H](CC(=O)O)C(=O)O)[C@@H](C)O)[C@@H](C)CC [Compound 35] (H-H[Aib]EGTFTSELATILDEQAARDFINWLKAHKITD-OH)
- EC50 (human GLP-2 receptor): 0.048 nM
- Small intestinal wet weight [1]: 0.81 g
- Fasting blood glucose [1]: 5.95 mM
- EC50 (human GLP-1 receptor): 0.006 nM

Structure (SMILES): CC[C@H](C)[C@H](NC(=O)[C@H](CC(C)C)NC(=O)[C@H](Cc1c[nH]c2ccccc12)NC(=O)[C@H](CO)NC(=O)[C@@H](NC(=O)[C@H](Cc1ccccc1)NC(=O)[C@H](CC(=O)O)NC(=O)[C@H](CCCNC(=N)N)NC(=O)[C@H](C)NC(=O)[C@H](C)NC(=O)[C@H](CCC(N)=O)NC(=O)[C@H](CCC(=O)O)NC(=O)[C@H](CC(=O)O)NC(=O)[C@H](CC(C)C)NC(=O)[C@@H](NC(=O)[C@@H](NC(=O)[C@H](C)NC(=O)[C@H](CC(C)C)NC(=O)[C@H](CCC(=O)O)NC(=O)[C@H](CO)NC(=O)[C@@H](NC(=O)[C@H](Cc1ccccc1)NC(=O)[C@@H](NC(=O)CNC(=O)[C@H](CCC(=O)O)NC(=O)C(C)(C)NC(=O)[C@@H](N)Cc1c[nH]cn1)[C@@H](C)O)[C@@H](C)O)[C@@H](C)O)[C@@H](C)CC)[C@@H](C)CC)C(=O)N[C@@H](C)C(=O)N[C@@H](Cc1c[nH]cn1)C(=O)N[C@@H](CCCCN)C(=O)N[C@H](C(=O)N[C@H](C(=O)N[C@@H](CC(=O)O)C(=O)O)[C@@H](C)O)[C@@H](C)CC [Compound 34] (H-H[Aib]EGTFTSELATILDEQAARDFISWLIAHKITD-OH)
- EC50 (human GLP-2 receptor): 0.049 nM
- Small intestinal wet weight [1]: 0.93 g
- Fasting blood glucose [1]: 5.62 mM
- EC50 (human GLP-1 receptor): 0.005 nM

Structure (SMILES): CC[C@H](C)[C@H](NC(=O)[C@H](Cc1ccccc1)NC(=O)[C@H](CC(=O)O)NC(=O)[C@H](CCCNC(=N)N)NC(=O)[C@H](C)NC(=O)[C@H](C)NC(=O)[C@H](CCC(N)=O)NC(=O)[C@H](CCC(=O)O)NC(=O)[C@H](CC(=O)O)NC(=O)[C@H](CC(C)C)NC(=O)[C@@H](NC(=O)[C@@H](NC(=O)[C@H](C)NC(=O)[C@H](CC(C)C)NC(=O)[C@H](CCC(=O)O)NC(=O)[C@H](CO)NC(=O)[C@@H](NC(=O)[C@H](Cc1ccccc1)NC(=O)[C@H](CO)NC(=O)CNC(=O)[C@H](CCC(=O)O)NC(=O)C(C)(C)NC(=O)[C@@H](N)Cc1c[nH]cn1)[C@@H](C)O)[C@@H](C)O)[C@@H](C)CC)C(=O)N[C@@H](C)C(=O)N[C@@H](Cc1c[nH]c2ccccc12)C(=O)N[C@@H](CC(C)C)C(=O)N[C@@H](Cc1c[nH]cn1)C(=O)N[C@@H](C)C(=O)N[C@@H](Cc1c[nH]cn1)C(=O)N[C@@H](CCCCN)C(=O)N[C@H](C(=O)N[C@H](C(=O)N[C@@H](CC(=O)O)C(=O)O)[C@@H](C)O)[C@@H](C)CC [Compound 22] (H-H[Aib]EGSFTSELATILDEQAARDFIAWLHAHKITD-OH)
- EC50 (human GLP-2 receptor): 0.042 nM
- Small intestinal wet weight [1]: 0.82 g
- Fasting blood glucose [1]: 6.18 mM
- EC50 (human GLP-1 receptor): 0.28 nM
